These results are taken from BindingDB's records for doi:10.1016/j.bmcl.2018.01.029 (Presidio Pharmaceuticals, 2018).

Assay [1] in a line: Inhibition of HCV genotype 1a NS5A polymerase L31V/Y93H double mutant infected in human HuH7 replicon cells by luciferase reporter gene assay.
Assay [2] is described as follows: Inhibition of HCV genotype 1b NS5B polymerase infected in human HuH7 replicon cells by luciferase reporter gene assay.

Consider `CNC(=O)c1c(-c2ccc(F)cc2)oc2cc3c(cc12)C(O)CCCN3S(C)(=O)=O` (stereo not given), for which the concentration giving a half-maximal response (EC50) in assay [1] was found to be 730 nM; in assay [2] it was 107 nM.
As to `CS(=O)(=O)NC(=O)c1c(-c2ccc(F)cc2)oc2cc3c(cc12)CCCCN3S(C)(=O)=O`, the EC50 in assay [1] was more than 2000 nM.
`CS(=O)(=O)N1CCCCc2cc3c(C(=O)NC4CC4)c(-c4ccc(F)cc4)oc3cc21`: the EC50 in assay [1] is more than 2000 nM.
Still for that read-out and setting: to `CN(C)C(=O)c1c(-c2ccc(F)cc2)oc2cc3c(cc12)CCCCN3S(C)(=O)=O` belongs more than 2000 nM; to `CS(=O)(=O)N1CCCCc2cc3c(C(N)=O)c(-c4ccc(F)cc4)oc3cc21`, more than 2000 nM.
In the case of `CNC(=O)c1c(-c2ccc(F)cc2)nc2cc3c(cn12)C(C)CCCN3S(C)(=O)=O` (stereo not given), the 50% effective concentration (EC50) was 801 nM in assay [1] and 182 nM in assay [2].
On the same counts, the results for `CNC(=O)c1c(-c2ccc(Oc3ccc(F)cc3)cc2)oc2cc3c(cc12)C(C)CCCN3S(C)(=O)=O` (stereo not given) are 71 nM and 14 nM.
Regarding `CNC(=O)c1c(-c2ccc(F)cc2F)oc2cc3c(cc12)C(C)CCCN3S(C)(=O)=O` (stereo not given), the EC50 in assay [1] came out at 15 nM; in assay [2] it was 8 nM.
With `CNC(=O)c1c(-c2ccccc2F)oc2cc3c(cc12)C(C)CCCN3S(C)(=O)=O` (stereo not given), the EC50 in assay [1] was determined as 11 nM; in assay [2], 7 nM.
On to `CNC(=O)c1c(-c2ccc(F)cc2)oc2cc3c(cc12)[C@@H](C)n1nncc1CN3S(C)(=O)=O`, for which it took 38 nM to reach a half-maximal effect in assay [2] (EC50).
In the case of `CNC(=O)c1c(-c2ccc(F)cc2)oc2cc3c(cc12)C(C)NCCN3S(C)(=O)=O` (stereo not given), the EC50 in assay [1] was 265 nM; in assay [2] it was 43 nM.
Regarding `CNC(=O)c1c(-c2ccc(F)cc2)oc2cc3c(cc12)[C@H](C)OCCN3S(C)(=O)=O`, the values for the EC50 in assay [1] and in assay [2] were 9 nM and 3 nM, respectively.
On the same counts, the results for `CNC(=O)c1c(-c2ccc(F)cc2)oc2cc3c(cc12)[C@H]1C[C@H]1CCN3S(C)(=O)=O` are more than 2000 nM and more than 2000 nM.
The matching figures for `CNC(=O)c1c(-c2ccc(F)cc2)oc2cc3c(cc12)[C@@H]1C[C@@H]1CCN3S(C)(=O)=O`: 25 nM and 7 nM.
With `CNC(=O)c1c(-c2ccc(F)cc2)oc2cc3c(cc12)C1(CCCN3S(C)(=O)=O)CC1`, the half-maximal effective concentration (EC50) is 118 nM in assay [1] and 20 nM in assay [2].
On the same counts, the results for `CNC(=O)c1c(-c2ccc(F)cc2)oc2cc3c(cc12)[C@@H](C)CCCN3S(C)(=O)=O` are 89 nM and 46 nM.
On to `CNC(=O)c1c(-c2ccc(F)cc2)oc2cc3c(cc12)C(C)CCCN3S(C)(=O)=O` (stereo not given), for which the half-maximal effective concentration (EC50) turned out to be 10 nM in assay [1] and 3 nM in assay [2].
For the molecule `CS(=O)(=O)N1CCCCc2cc3c(-c4ncn[nH]4)c(-c4ccc(F)cc4)oc3cc21`, the EC50 in assay [2] is 850 nM. This lies in the sub-micromolar range.
On the same count and under the same terms, to `CNC(=O)c1c(-c2ccc(F)cc2)oc2cc3c(cc12)CCCCCCN3S(C)(=O)=O` belongs 26 nM; to `CNC(=O)c1c(-c2ccc(F)cc2)oc2cc3c(cc12)CCCCCN3S(C)(=O)=O`, 5 nM; to `CNC(=O)c1c(-c2ccc(F)cc2)oc2cc3c(cc12)CCCN3S(C)(=O)=O`, 451 nM.
For `CNC(=O)c1c(-c2ccc(F)cc2)oc2cc3c(cc12)CCN3S(C)(=O)=O`, it took 304 nM to reach a half-maximal effect in assay [2] (EC50).
`CNC(=O)c1c(-c2ccc(F)cc2)oc2cc3c(cc12)C(C)n1nncc1CN3S(C)(=O)=O` (stereo not given) gave an EC50 in assay [2] of 6 nM.
The same measure, in the same setting: to `CNC(=O)c1c(-c2ccc(F)cc2)oc2cc3c(cc12)[C@H](C)NC(=O)CN3S(C)(=O)=O` belongs 5 nM; to `CNC(=O)c1c(-c2ccc(F)cc2)oc2cc3c(cc12)[C@@H](C)O[C@@H](CO)CN3S(C)(=O)=O`, 1470 nM.
Turning to `CS(=O)(=O)N1CCCCc2cc3c(C4=NCCN4)c(-c4ccc(F)cc4)oc3cc21`, the EC50 in assay [1] was more than 2000 nM.
Same read-out and setting: in the case of `CS(=O)(=O)N1CCCCc2cc3c(C(=O)NC#N)c(-c4ccc(F)cc4)oc3cc21` it was more than 2000 nM.
For `CNC(=O)c1c(-c2ccc(F)cc2)oc2cc3c(cc12)[C@H](C)n1nncc1CN3S(C)(=O)=O`, in assay [2], the EC50 was 3 nM.
